Data: patent US7989464B2, “mGluR1 antagonists as therapeutic agents” (Schering Corporation, priority 2004, dated 2011)

These molecules were tested against T1, hmGluR1 receptor (Homo sapiens, UniProt Q13255) (assay: IC50 determination: intracellular calcium mobilization (FLIPR) upon Quisqualate stimulation in CHO cells stably expressing hmGluR1). Details: against Quisqualate 1 μM (EC80), FLIPR calcium mobilization, read-out: IC50 Class.
T1 construct: expressed in transfected cells
Format: cell-based
Description: A CHO cell line stably expressing hmGluR1 receptor was established. One day prior to assay, cells were split in growth media at concentration of 50,000 cells/well in a volume of 100 μl and seeded into black clear-bottom 96-well plates. After two to six hours, when cells were well attached to the plate, growth medium was replaced with assay medium (100 μL) consisting of DMEM high glucose, supplemented with GPT (1 U/mL) and Sodium pyruvate, 1 mM. Following overnight incubation, medium was discarded and cells were loaded for 2 h with dye from the Calcium 3 Assay Reagent Kit (Molecular Devices, # R8033), prepared according to manufacturers' instructions. […] Test compounds were added 10 minutes before Quisqualate.

T1 sequence (Q13255 19-1194): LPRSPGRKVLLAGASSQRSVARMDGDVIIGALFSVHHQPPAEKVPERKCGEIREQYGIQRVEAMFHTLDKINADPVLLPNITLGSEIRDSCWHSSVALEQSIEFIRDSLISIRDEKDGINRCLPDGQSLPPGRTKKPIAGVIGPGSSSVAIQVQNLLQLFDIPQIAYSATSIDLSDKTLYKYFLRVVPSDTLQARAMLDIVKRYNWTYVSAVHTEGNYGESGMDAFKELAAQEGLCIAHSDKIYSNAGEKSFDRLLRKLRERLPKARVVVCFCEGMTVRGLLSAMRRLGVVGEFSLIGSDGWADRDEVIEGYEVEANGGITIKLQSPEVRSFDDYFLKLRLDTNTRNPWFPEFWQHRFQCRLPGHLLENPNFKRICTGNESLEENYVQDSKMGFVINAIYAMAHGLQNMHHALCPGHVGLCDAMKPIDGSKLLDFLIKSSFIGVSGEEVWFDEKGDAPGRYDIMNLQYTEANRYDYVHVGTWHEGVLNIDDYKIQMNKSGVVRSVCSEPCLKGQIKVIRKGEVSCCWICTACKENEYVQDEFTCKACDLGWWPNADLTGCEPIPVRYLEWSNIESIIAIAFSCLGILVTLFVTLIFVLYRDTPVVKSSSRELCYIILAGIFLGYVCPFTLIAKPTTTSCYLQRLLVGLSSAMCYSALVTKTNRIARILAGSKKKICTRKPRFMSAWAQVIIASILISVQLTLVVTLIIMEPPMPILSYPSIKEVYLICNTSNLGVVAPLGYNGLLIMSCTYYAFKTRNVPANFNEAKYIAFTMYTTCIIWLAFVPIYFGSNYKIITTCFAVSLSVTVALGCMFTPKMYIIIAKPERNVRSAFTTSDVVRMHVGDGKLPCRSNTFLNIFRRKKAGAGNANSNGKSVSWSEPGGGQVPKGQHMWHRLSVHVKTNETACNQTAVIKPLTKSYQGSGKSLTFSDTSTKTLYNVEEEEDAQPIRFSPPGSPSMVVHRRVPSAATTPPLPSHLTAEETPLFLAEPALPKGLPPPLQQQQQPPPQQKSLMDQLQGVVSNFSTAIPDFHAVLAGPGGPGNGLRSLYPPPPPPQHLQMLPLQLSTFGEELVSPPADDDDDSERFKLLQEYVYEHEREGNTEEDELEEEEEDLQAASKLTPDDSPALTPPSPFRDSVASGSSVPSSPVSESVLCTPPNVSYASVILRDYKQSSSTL

| SMILES | IC50 [nM] |
| --- | --- |
| O=c1c2sc3nccc(NCCO)c3c2ncn1-c1ccc2occc2c1 [28BD] | < 50 |
| CCNc1ccnc2sc3c(=O)n(-c4ccc5occc5c4)cnc3c12 [28BG] | < 50 |
| CNc1ccnc2sc3c(=O)n(-c4ccc5occc5c4)cnc3c12 [28BH] | < 50 |
| CCNc1ccnc2sc3c(=O)n(-c4ccc(OC)cc4F)cnc3c12 [28BJ] | 50 to 150 |
| COc1ccc(-n2cnc3c(sc4nccc(NCC(F)(F)F)c43)c2=O)c(C)c1 [28BP] | 150 to 1000 |
| CCc1ccc(-n2cnc3c(sc4nccc(N(C)CC)c43)c2=O)cc1 [28BS] | < 50 |
| CCc1ccc(-n2cnc3c(sc4nccc(NC5CC5)c43)c2=O)cc1 [28BT] | 50 to 150 |
| CCN(C)c1ccnc2sc3c(=O)n(-c4ccc(OC)cc4F)cnc3c12 [28BW] | < 50 |
| CCNc1ccnc2sc3c(=O)n(-c4ccc5c(c4)OCCO5)cnc3c12 [28BY] | < 50 |
| CNc1ccnc2sc3c(=O)n(-c4ccc5c(c4)OCCO5)cnc3c12 [28BZ] | < 50 |
| CCN(C)c1ccnc2sc3c(=O)n(-c4cccc(Cl)c4)cnc3c12 [28CA] | < 50 |
| O=c1c2sc3nccc(NC4CC4)c3c2ncn1-c1cccc(Cl)c1 [28CB] | 50 to 150 |
| CNc1ccnc2sc3c(=O)n(-c4cccc(Cl)c4)cnc3c12 [28CC] | 50 to 150 |
| CCNc1ccnc2sc3c(=O)n(-c4cccc(Cl)c4)cnc3c12 [28CD] | < 50 |
| CCN(C)c1ccnc2sc3c(=O)n(-c4ccc5c(c4)CCO5)cnc3c12 [28CH] | < 50 |
| O=c1c2sc3nccc(NCCCO)c3c2ncn1-c1ccc2c(c1)OCCO2 [28CI] | < 50 |
| O=c1c2sc3nccc(NC4CC4)c3c2ncn1-c1ccc2c(c1)OCCO2 [28CK] | < 50 |
| O=c1c2sc3nccc(NC4CC4)c3c2ncn1-c1cccc(F)c1 [28CN] | < 50 |
| CN(C)c1ccnc2sc3c(=O)n(-c4cccc(F)c4)cnc3c12 [28CP] | < 50 |

| SMILES | IC50 [nM] |
| --- | --- |
| Cc1ccc(-n2cnc3c(sc4nccc(NCCCCO)c43)c2=O)cc1 [28CT] | < 50 |
| Cc1ccc(-n2cnc3c(sc4nccc(N5CCOCC5)c43)c2=O)cc1 [28CW] | > 1000 |
| COCCCNc1ccnc2sc3c(=O)n(-c4ccc(C)cc4)cnc3c12 [28CZ] | < 50 |
| Cc1ccc(-n2cnc3c(sc4nccc(NC5CCC5)c43)c2=O)cc1 [28DA] | 150 to 1000 |
| COCCNc1ccnc2sc3c(=O)n(-c4ccc(OC)cc4)cnc3c12 [28DC] | < 50 |
| Cc1ccc(-n2cnc3c(sc4nccc(N[C@@H](C)CO)c43)c2=O)cc1 [28DD] | 150 to 1000 |
| Cc1ccc(-n2cnc3c(sc4nccc(NC5CCC(O)CC5)c43)c2=O)cc1 (stereo not drawn) [28DE] | 150 to 1000 |
| Cc1ccc(-n2cnc3c(sc4nccc(NC5CCOCC5)c43)c2=O)cc1 [28DG] | 150 to 1000 |
| Cc1ccc(-n2cnc3c(sc4nccc(N5CC(O)C5)c43)c2=O)cc1 [28DH] | 150 to 1000 |
| O=c1c2sc3nccc(N4CC(O)C4)c3c2ncn1-c1ccc(Cl)cc1 [28DI] | 150 to 1000 |
| COc1ccc(-n2cnc3c(sc4nccc(N5CC(O)C5)c43)c2=O)cc1 [28DJ] | 50 to 150 |
| COc1ccc(-n2cnc3c(sc4nccc(N(C)N)c43)c2=O)cc1 [28DO] | < 50 |
| C#CCNc1ccnc2sc3c(=O)n(-c4ccc(Br)cc4)cnc3c12 [28DP] | < 50 |
| C#CCNc1ccnc2sc3c(=O)n(-c4ccc(OC)cc4)cnc3c12 [28DQ] | < 50 |
| C=CCNc1ccnc2sc3c(=O)n(-c4ccc(OC)c(F)c4)cnc3c12 [28DT] | < 50 |
| C#CCN(C)c1ccnc2sc3c(=O)n(-c4ccc(Cl)cc4)cnc3c12 [28DX] | < 50 |
| C=CCN(C)c1ccnc2sc3c(=O)n(-c4ccc(Cl)cc4)cnc3c12 [28DZ] | < 50 |
| O=c1c2sc3nccc(NC4CC4)c3c2ncn1-c1ccncc1 [28ED] | 150 to 1000 |

Results, then the molecule that gave them:

| IC50 [nM] | SMILES |
| --- | --- |
| < 50 | CN(CCO)c1ccnc2sc3c(=O)n(-c4ccc5occc5c4)cnc3c12 [28BE] |
| < 50 | O=c1c2sc3nccc(NCCCO)c3c2ncn1-c1ccc2occc2c1 [28BF] |
| < 50 | O=c1c2sc3nccc(NC4CC4)c3c2ncn1-c1ccc2occc2c1 [28BI] |
| < 50 | CNc1ccnc2sc3c(=O)n(-c4ccc(OC)cc4F)cnc3c12 [28BK] |
| > 1000 | COc1ccc(-n2cnc3c(sc4nccc(OC)c43)c2=O)c(C)c1 [28BL] |
| 50 to 150 | COc1ccc(-n2cnc3c(sc4nccc(NCC(F)(F)F)c43)c2=O)c(F)c1 [28BM] |
| < 50 | CNc1ccnc2sc3c(=O)n(-c4ccc(OC)cc4C)cnc3c12 [28BN] |
| < 50 | CCNc1ccnc2sc3c(=O)n(-c4ccc(OC)cc4C)cnc3c12 [28BO] |
| < 50 | CCNc1ccnc2sc3c(=O)n(-c4ccc5c(c4)CCO5)cnc3c12 [28BQ] |
| < 50 | CNc1ccnc2sc3c(=O)n(-c4ccc5c(c4)CCO5)cnc3c12 [28BR] |
| < 50 | CCN(C)c1ccnc2sc3c(=O)n(-c4ccc5occc5c4)cnc3c12 [28BU] |
| < 50 | CCN(C)c1ccnc2sc3c(=O)n(-c4ccc(OC)cc4C)cnc3c12 [28BV] |
| 150 to 1000 | O=c1c2sc3nccc(NCC4CC4)c3c2ncn1-c1ccc2occc2c1 [28BX] |
| < 50 | O=c1c2sc3nccc(NC4CC4)c3c2ncn1-c1ccc2c(c1)CCO2 [28CE] |
| < 50 | CN(CCO)c1ccnc2sc3c(=O)n(-c4ccc5c(c4)OCCO5)cnc3c12 [28CF] |
| < 50 | CCN(C)c1ccnc2sc3c(=O)n(-c4ccc5c(c4)OCCO5)cnc3c12 [28CG] |
| < 50 | O=c1c2sc3nccc(NCCCO)c3c2ncn1-c1ccc2c(c1)CCO2 [28CJ] |
| < 50 | CN(CCO)c1ccnc2sc3c(=O)n(-c4ccc5c(c4)CCO5)cnc3c12 [28CL] |
| < 50 | CCN(C)c1ccnc2sc3c(=O)n(-c4cccc(F)c4)cnc3c12 [28CM] |
| < 50 | CNc1ccnc2sc3c(=O)n(-c4cccc(F)c4)cnc3c12 [28CO] |
| < 50 | CCNc1ccnc2sc3c(=O)n(-c4cccc(F)c4)cnc3c12 [28CQ] |
| 50 to 150 | CCNc1ccnc2sc3c(=O)n(-c4cccc(Br)c4)cnc3c12 [28CR] |

| IC50 [nM] | SMILES |
| --- | --- |
| 50 to 150 | CNc1ccnc2sc3c(=O)n(-c4cccc(Br)c4)cnc3c12 [28CS] |
| > 1000 | Cc1ccc(-n2cnc3c(sc4nccc(N5CC[C@H](O)C5)c43)c2=O)cc1 [28CU] |
| > 1000 | Cc1ccc(-n2cnc3c(sc4nccc(N5CC[C@@H](O)C5)c43)c2=O)cc1 [28CV] |
| < 50 | Cc1ccc(-n2cnc3c(sc4nccc(NCCCO)c43)c2=O)cc1 [28CX] |
| < 50 | Cc1ccc(-n2cnc3c(sc4nccc(NCCC(C)O)c43)c2=O)cc1 (stereo not drawn) [28CY] |
| < 50 | COc1ccc(-n2cnc3c(sc4nccc(NCCO)c43)c2=O)cc1 [28DB] |
| > 1000 | Cc1ccc(-n2cnc3c(sc4nccc(NC5CCCCC5)c43)c2=O)cc1 [28DF] |
| 150 to 1000 | Cc1ccc(-n2cnc3c(sc4nccc(NN)c43)c2=O)cc1 [28DK] |
| < 50 | C#CCNc1ccnc2sc3c(=O)n(-c4ccc(Cl)cc4)cnc3c12 [28DL] |
| > 1000 | CN(N)c1ccnc2sc3c(=O)n(-c4ccc(Cl)cc4)cnc3c12 [28DM] |
| < 50 | CON(C)c1ccnc2sc3c(=O)n(-c4ccc(Cl)cc4)cnc3c12 [28DN] |
| < 50 | C=CCNc1ccnc2sc3c(=O)n(-c4ccc(Br)cc4)cnc3c12 [28DR] |
| < 50 | C=CCNc1ccnc2sc3c(=O)n(-c4ccc(OC)cc4)cnc3c12 [28DS] |
| < 50 | C#CCN(C)c1ccnc2sc3c(=O)n(-c4ccc(OC)cc4)cnc3c12 [28DU] |
| < 50 | C#CCN(C)c1ccnc2sc3c(=O)n(-c4ccc(Br)cc4)cnc3c12 [28DV] |
| < 50 | C#CCNc1ccnc2sc3c(=O)n(-c4ccc(OC)c(F)c4)cnc3c12 [28DW] |
| 50 to 150 | C=CCNc1ccnc2sc3c(=O)n(-c4ccc(Cl)cc4)cnc3c12 [28DY] |
| < 50 | C=CCN(C)c1ccnc2sc3c(=O)n(-c4ccc(OC)cc4)cnc3c12 [28EA] |
| 50 to 150 | C=CCN(C)c1ccnc2sc3c(=O)n(-c4ccc(Br)cc4)cnc3c12 [28EB] |
| < 50 | C=CCNc1ccnc2sc3c(=O)n(-c4ccc(F)cc4)cnc3c12 [28EC] |
| 150 to 1000 | CN(C)c1ccnc2sc3c(=O)n(-c4ccncc4)cnc3c12 [28EE] |

Same assay, conditions: against Quisqualate 1 μM (EC80), FLIPR calcium mobilization, read-out: mGluR1 IC50

| SMILES | IC50 [nM] |
| --- | --- |
| C#CCNc1ccnc2sc3c(=O)n(-c4ccc(Br)cc4)cnc3c12 [28DP] | 1.75 |
| C=CCN(C)c1ccnc2sc3c(=O)n(-c4ccc(Cl)cc4)cnc3c12 [28DZ] | 1.08 |

More lines, now with the values ahead:

| IC50 [nM] | SMILES |
| --- | --- |
| 1.57 | CCNc1ccnc2sc3c(=O)n(-c4ccc5c(c4)CCO5)cnc3c12 [28BQ] |
| 0.91 | C#CCNc1ccnc2sc3c(=O)n(-c4ccc(Cl)cc4)cnc3c12 [28DL] |
| 1.95 | C=CCNc1ccnc2sc3c(=O)n(-c4ccc(OC)cc4)cnc3c12 [28DS] |
| 1.87 | C#CCN(C)c1ccnc2sc3c(=O)n(-c4ccc(Br)cc4)cnc3c12 [28DV] |

Same assay, conditions: against Quisqualate 1 μM (EC80), class symbols, read-out: mGIuR 1 IC50

| SMILES | IC50 [nM] |
| --- | --- |
| Cc1ccc(-n2cnc3c(sc4nccc(NCCO)c43)c2=O)cc1 [28AV] | < 50 |
| COc1ccc(-n2cnc3c(sc4nccc(NCC5CC5)c43)c2=O)cc1 [28AX] | 150 to 1000 |
| Cc1ccc(-n2cnc3c(sc4nccc(NCC5CC5)c43)c2=O)cc1 [28AY] | 150 to 1000 |
| O=c1c2sc3nccc(N4CCCC4)c3c2ncn1C1CCCCC1 [28A] | > 1000 |
| O=c1c2sc3nccc(NC4CCCCC4)c3c2ncn1-c1ccccc1 [28D] | > 1000 |

Second part, the molecule after the results:

| IC50 [nM] | SMILES |
| --- | --- |
| < 50 | CCCN(C)c1ccnc2sc3c(=O)n(-c4ccc(C)cc4)cnc3c12 [28AT] |
| < 50 | Cc1ccc(-n2cnc3c(sc4nccc(NCC(F)(F)F)c43)c2=O)cc1 [28AU] |
| < 50 | COc1ccc(-n2cnc3c(sc4nccc(NCC(F)(F)F)c43)c2=O)cc1 [28AW] |
| < 50 | COCCNc1ccnc2sc3c(=O)n(-c4ccc(C)cc4)cnc3c12 [28AZ] |
| 150 to 1000 | Cc1ccc(-n2cnc3c(sc4nccc(NCCN(C)C)c43)c2=O)cc1 [28BA] |
| < 50 | Cc1ccc(-n2cnc3c(sc4nccc(NC[C@H](C)O)c43)c2=O)cc1 [28BB] |
| > 1000 | O=c1c2sc3nccc(NC4CCCCC4)c3c2ncn1-c1ccc(Cl)cc1 [28B] |
| > 1000 | O=c1c2sc3nccc(NC4CCCCC4)c3c2ncn1C1CCCCC1 [28C] |
